Results taken from US6812218B2, “Lipid derivatives of polythiourea” (Gencell S.A., priority 2001, dated 2004).

Experiments:
plasmid pXL3031 = assay: ethidium bromide fluorescence test of nucleic acid compaction; type: binding; settings: conditions identical to the DT-3TU mixtures, 150 mM sodium chloride
Experimental: In the text which follows, the nucleic acid used was the plasmid pXL3031 described in the publication Gene Therapy (1999) 6, pp. 1482-1488, which contained the luc gene encoding luciferase under the control of the cytomegalovirus CMV E/P promoter. This plasmid is represented in FIG. 7. Its size is 3671 bp. The plasmid solution used was diluted to 1.262 g/l in water for injection.
(§1) The nucleic acid was brought into contact with increasing quantities of DT-3TU (12), by equivolumetric mixing of lipid solutions of various titers in the solutions of nucleic acid. Samples of 800 μl of nucleic acid complexes with a concentration of 0.01 μg/ml were thus prepared in a 150 mM sodium chloride solution with increasing quantities of DT-3TU (12).
as §1, with “In the same manner, a control was prepared by bringing the” for “The”, “acid” for “acid was brought”, “EPC (see FIG. 1) or of DPPC (see FIG. 2),” for “DT-3TU (12),”, “[…]” for “μg/ml”, “EPC or of DPPC (FIGS. 1 and 2 respectively).” for “DT-3TU (12).”
The ethidium bromide fluorescence was measured over time (measured at 20° C.) using a FluoroMax-2 (Jobin Yvon-Spex) with excitation and emission wavelengths of 260 nm and 590 nm respectively. […]

HeLa cells [1] = assay: in vitro transfection, luciferase activity; type: cell-based, human; settings: 10% FCS versus without serum
Experimental: This study was carried out for lipoplexes comprising various quantities of DT-3TU: 1.5 or 5 or 10 or 15 or 20 nmol of DT-3TU/μg of DNA. Each of these conditions was tested with and without fetal calf serum (“+Serum” or “−Serum”).
HeLa cells (American type Culture Collection (ATCC) Rockville, Md., USA) derived from a carcinoma of human cervical epithelium, were cultured in the presence of an MEM (“minimum essential medium”) type medium with addition of 2 mM L-glutamine, 50 units/ml of penicillin and 50 units/ml of streptomycin. The medium and the additives were from Gibco-BRL Life Technologies (Gaithersburg, Md., USA). The cells were cultured in flasks at 37° C. and at 5% carbon dioxide in an incubator.
one day before the transfection, the HeLa cells were transferred into […] with a cell number of 30,000 to 50,000 per well. These dilutions represent approximately 80% confluence after 24 hours. […]
Briefly, the transfected cells were washed twice with 500 μl of PBS (phosphate buffer) and then lysed with 250 μl of reagent (Promega cell culture lysis reagent, of the Luciferase Assay System kit). An aliquot of 10 μl of supernatant of the lysate centrifuged (12,000×g) for 5 minutes at 4° C. was measured with a Wallace Victor 2 luminometer (1420 Multilabel couter). […]

[2] = tested on: tibial and cranial muscles; assay: in vivo muscle transfection, luciferase expression; design: species or system mice C57bl/6; settings: intramuscular, 3 μg of DNA, 96 hours after injection
Experimental: Muscles samples were taken 96 hours after the injection and the level of expression for luciferase was measured using a luminometer (wallace).
Complexes containing increasing quantities of DT-3TU lipid per μg of DNA were injected in both tibial and cranial muscles of the mice, to which electric pulsations were or were not applied (Bureau, M et al, BBA 2000).
The mice C57bl/6 had undergone previously anaesthetic with a mixture of Ketamin/Xylazine. The injection was or was not followed by the application of transcutaneous electric pulsations using electrodes placed in both ends of the muscle (Bureau, M et al, BBA 2000).
96 hours after the injection, the mice underwent euthanasia, muscles samples were taken and ground in 1 ml buffer lyse solution. After centrifugation (10 min., 12000 rpm, 4° C.), supernatant (10 μl) was taken and placed in a 96 well plate to read the luciferase after adding 50 μl of luciferase substrate. The level of luminescence was read in the supernatant using a luminometer (Wallace, Victor).

HeLa cells [3] = assay: toxicity toward the cells, protein level after transfection; type: cell-based, human; settings: lipoplexes with 0.75 to 20 nmol of DT-3TU per μg of DNA
Experimental: The protein level was measured after transfection. The transfection protocol was identical to that described in Example 8.
Briefly, the transfected cells were washed twice with 500 μl of PBS (phosphate buffer) and then lysed with 250 μl of reagent (Promega cell culture lysis reagent, of the Luciferase Assay System kit). An aliquot of 50 μl of supernatant of the lysate centrifuged (12,000×g) for 5 minutes at 4° C. was transferred into a tube in the presence of 50 μl of 0.1 M iodoacetamide, 0.1 M hydrochloric acid tris at pH 8.2 and left for 1 hour at 37° C. 20 μl of the preceding solutions were deposited in a 96-well plate and 200 μl of “BCA protein assay” reagent (Pierce, Montluson, France) were added. The plate was then centrifuged at 2500 revolutions/min and then incubated at 37° C. for 30 minutes. In parallel, a bovine serum albumin (BSA) range was prepared in order to correlate the absorbance value obtained for the samples with a quantity of protein present in the sample.

[4] = size of the lipid/DNA particles; type: physicochemical; settings: without lipid-PEG
Excerpt: The use of cholesterol-PEG in the DT-3TU/DPPC formulations has the advantage of permitting the reduction of the particles to such a quantity of lipid that, in the case of the absence of lipid-PEG, would lead to aggregation. […] In order to obtain particles of this size it is necessary to use at least 40 nmol of the lipid DT-3TU/μg of DNA. Thus, the use of lipid-PEG in the formulations of the lipid DT-3TU has the advantage of reducing the quantity of DT-3TU necessary to compact the DNA and form particles whose size is smaller than 500 nm

Row | Compound | decrease in fluorescence, lipid alone (control) (plasmid pXL3031) | effect of the presence of serum on transfection (HeLa cells [1]) | level of expression (luciferase) versus background noise of control muscle [2] | transfection of muscle tissues ([2]; 20 and 40 nmol of DT-3TU lipid per μg of DNA, with or without electric pulsations) | toxicity toward the cells (HeLa cells [3]) | quantity of lipid necessary to obtain particles inferior to 500 nm [4]
1 | CCCCCCCCCCCCCCCC(=O)OC[C@H](COP(=O)([O-])OCC[N+](C)(C)C)OC(=O)CCCCCCCCCCCCCCC [DPPC, 1,2-dipalmitoyl-sn-glycero-3-phosphocholine] | about 5% |  |  |  |  | 
2 | CCCCCCCCCCCCCCN(CCCCCCCCCCCCCC)C(=O)CCC(=O)NCCNC(=S)NCCNC(=S)NCCNC(=S)NC [DT-3TU, 3-(2-{3-[2-(3-{2-[3-(ditetradecylcarbamoyl)propionylamino]ethyl}thioureido)ethyl]thioureido}ethyl)-1-methylthiourea] |  | weak inhibition of transfection | > 5.0×10^4 | significant level of transfection | no toxicity was observed | at least 40 nmol of the lipid DT-3TU/μg of DNA
